US10058534B2, “Benzothiophene derivatives and compositions thereof as selective estrogen receptor degraders” (NOVARTIS AG, priority 2013, dated 2018)
Read-outs that look alike come from different tables or passages of the source.

Key:
[1] = target: ER (endogenous, MCF7 cells) (Homo sapiens (Human), UniProt P03372); assay: ER transcription assay (MCF7 cells), ERE-luciferase reporter; type: cell-based
Description: ER Transcription Assay (MCF7 Cells)
The ER transcription assay is a reporter assay that is based on the ability of ER to induce transcription from a luciferase reporter gene containing estrogen response elements (EREs) in the promoter/enhancer region. When the reporter gene is transfected in MCF7 cells (containing endogenous ER), transcription is reflected by the level of luciferase expression.
A day before transfection, cells are split into a T75 flask at a cell density of 300,000 cells/mL (10 mL total) and allowed to attach overnight in a humidified CO2 incubator at 37° C.
Approximately 20 ug DNA is mixed in OptiMEM (Invitrogen) to a total volume of 650 μL. Following incubation, the OptiMEM-DNA mixture is added to the OptiMEM-Lipofectin mix and incubated for 15 minutes at 37° C. The DNA-Lipofectin mixture is then added directly to the T75 flask and the flask is returned to the incubator.
Normally, DMSO (used as a vehicle) is included to achieve a final concentration of 0.1% when added to the cells. Transfected cells are trypsinized, resuspended in DMEM/F12/10% charcoal-stripped serum and added to the 96-well plate at 25,000 cells/well in 90 μL of media. The plate is then returned to the incubator for 24 hours.
After incubation with compounds for 24 hours, Firefly and Renilla luciferase activities are measured to determine ER transcriptional activity. Media is removed from 96-well plates by decanting and blotting on paper towels.
One second total read time after a one second delay.
One second total read time after one second delay. If Firefly luciferase signal is high, Renilla assay must be done an hour after the Firefly assay due to incomplete squelching of Firefly signal.
(§1) The column titled MCF7 IC50 reports the inflection point of the inhibition of transcription in MCF7 cells as described above. Percentage ERα remaining reports the remaining ERα protein measured at 10 μM concentration of the ligand as described above. The column ERα IC50 reports the inflection point of the degradation in response to the ligand concentration.

ERα = ERα (Homo sapiens (Human), UniProt P03372); assay: ERα degradation (MCF7 cells), in-cell Western; type: cell-based; details: for % ERα remaining: remaining ERα protein at 10 μM ligand, relative to DMSO control; for % ERα remaining / IC50: MCF7 cells; for IC50: inflection point of the degradation in response to ligand concentration; for ER Percentage remaining: degradation potential, comparison of linker length between phenyl and -C(O)OH
Method: ERα Degradation (MCF7 Cells)
as §1

[2] = inflection point of the inhibition of transcription in MCF7 cells, 0.1 nM estradiol, 24 hours, read-out: MCF7 IC50
[3] = antagonist activity, comparison of linker length between phenyl and -C(O)OH, read-out: SERD IC50 MCF7

Sequence of ER (endogenous, MCF7 cells) (P03372 whole entry): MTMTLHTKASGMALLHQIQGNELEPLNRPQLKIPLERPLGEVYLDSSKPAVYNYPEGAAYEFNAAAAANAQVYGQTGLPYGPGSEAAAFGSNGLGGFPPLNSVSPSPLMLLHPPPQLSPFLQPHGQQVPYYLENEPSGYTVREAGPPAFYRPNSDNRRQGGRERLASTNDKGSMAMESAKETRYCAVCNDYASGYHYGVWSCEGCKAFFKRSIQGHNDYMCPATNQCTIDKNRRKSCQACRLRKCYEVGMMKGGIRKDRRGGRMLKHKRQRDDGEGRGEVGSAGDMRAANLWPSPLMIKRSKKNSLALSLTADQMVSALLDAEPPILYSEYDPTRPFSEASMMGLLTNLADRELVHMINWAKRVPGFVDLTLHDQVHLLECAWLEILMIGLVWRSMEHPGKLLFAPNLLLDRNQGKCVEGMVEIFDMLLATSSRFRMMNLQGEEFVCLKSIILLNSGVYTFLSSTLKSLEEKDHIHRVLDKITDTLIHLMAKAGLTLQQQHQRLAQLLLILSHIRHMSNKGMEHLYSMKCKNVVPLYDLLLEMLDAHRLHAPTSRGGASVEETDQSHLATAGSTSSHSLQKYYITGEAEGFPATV
Sequence of ERα (P03372 whole entry): as above

| SMILES | IC50 [1, 2] [nM] | % ERα remaining (ERα) [%] | IC50 (ERα) [nM] | IC50 [1, 3] [nM] | ER Percentage remaining (ERα) [Percentage] |
| --- | --- | --- | --- | --- | --- |
| CC(=O)/C=C/c1ccc(Oc2c(-c3ccc(F)cc3C(F)(F)F)sc3cc(O)ccc23)cc1 [Example 120, (E)-4-(4-((2-(4-fluoro-2-(trifluoromethyl)phenyl)-6-hydroxybenzo[b]thiophen-3-yl)oxy)phenyl)but-3-en-2-one] | 5.1 | 70 |  |  |  |
| CC(=O)/C=C/c1ccc(Oc2c(-c3ccc(C(F)(F)F)cc3)sc3cc(O)ccc23)cc1 [Example 121, (E)-4-(4-((6-hydroxy-2-(4-(trifluoromethyl)phenyl)benzo[b]thiophen-3-yl)oxy)phenyl)but-3-en-2-one] | 214 | 56 |  |  |  |
| CC(F)(F)c1ccccc1-c1sc2cc(O)ccc2c1Oc1ccc(/C=C/C(=O)O)cc1 [Example 122, (E)-3-(4-((2-(2-(1,1-difluoroethyl)phenyl)-6-hydroxybenzo[b]thiophen-3-yl)oxy)phenyl)acrylic acid] | 11 | 15 | 0.2 |  |  |
| O=C(O)/C=C/c1ccc(Oc2c(-c3ccccc3C3COC3)sc3cc(O)ccc23)cc1 [Example 123, (E)-3-(4-((6-hydroxy-2-(2-(oxetan-3-yl)phenyl)benzo[b]thiophen-3-yl)oxy)phenyl)acrylic acid] | 83 | 15 | 1.1 |  |  |
| Cc1cccc(C(C)C)c1-c1sc2cc(O)ccc2c1Oc1ccc(/C=C/C(=O)O)cc1 [Example 124, (E)-3-(4-((6-hydroxy-2-(2-isopropyl-6-methylphenyl)benzo[b]thiophen-3-yl)oxy)phenyl)acrylic acid] | 114 | 10 | 1.4 |  |  |
| CN(C)c1ccccc1-c1sc2cc(O)ccc2c1Oc1ccc(/C=C/C(=O)O)cc1 [Example 125, (E)-3-(4-((2-(2-(dimethylamino)phenyl)-6-hydroxybenzo[b]thiophen-3-yl)oxy)phenyl)acrylic acid] | 124 | 11 |  |  |  |
| O=C(O)/C=C/c1ccc(Oc2c(-c3ccccc3C3CC3)sc3cc(O)ccc23)cc1 [Example 127, (E)-3-(4-((2-(2-cyclopropylphenyl)-6-hydroxybenzo[b]thiophen-3-yl)oxy)phenyl)acrylic acid] | 208 | 16 | 4.2 |  |  |
| COc1ccc(-c2sc3cc(O)ccc3c2Oc2ccc(/C=C/C(=O)O)cc2)c(C)n1 [Example 129, (E)-3-(4-((6-hydroxy-2-(6-methoxy-2-methylpyridin-3-yl)benzo[b]thiophen-3-yl)oxy)phenyl)acrylic acid] | 297 | 22 |  |  |  |
| Cc1occc1-c1sc2cc(O)ccc2c1Oc1ccc(/C=C/C(=O)O)cc1 [Example 131, (E)-3-(4-((6-hydroxy-2-(2-methylfuran-3-yl)benzo[b]thiophen-3-yl)oxy)phenyl)acrylic acid] | 815 | 12 |  |  |  |
| C#Cc1ccccc1-c1sc2cc(O)ccc2c1Oc1ccc(/C=C/C(=O)O)cc1 [Example 132, (E)-3-(4-((2-(2-ethynylphenyl)-6-hydroxybenzo[b]thiophen-3-yl)oxy)phenyl)acrylic acid] | 890 | 16 |  |  |  |
| Cn1ccc2c(-c3sc4cc(O)ccc4c3Oc3ccc(/C=C/C(=O)O)cc3)cccc21 [Example 133, (E)-3-(4-((6-hydroxy-2-(1-methyl-1H-indol-4-yl)benzo[b]thiophen-3-yl)oxy)phenyl)acrylic acid] | 898 | 17 |  |  |  |
| COc1ccc(-c2sc3cc(O)ccc3c2Oc2ccc(/C=C/C(=O)O)cc2)c(C(C)C)c1 [Example 134, (E)-3-(4-((6-hydroxy-2-(2-isopropyl-4-methoxyphenyl)benzo [b]thiophen-3-yl)oxy)phenyl)acrylic acid] | 380 | 12 | 403 |  |  |
| CC(C)c1ccccc1-c1sc2cc(OC(=O)C(C)(C)C)ccc2c1Oc1ccc(/C=C/C(=O)O)cc1 [Example 135, (E)-3-(4-((2-(2-isopropylphenyl)-6-(pivaloyloxy)benzo[b]thiophen-3-yl)oxy)phenyl)acrylic acid] | 61 | 19 |  |  |  |
| CCC(=O)Oc1ccc2c(Oc3ccc(/C=C/C(=O)O)cc3)c(-c3ccccc3C(C)C)sc2c1 [Example 136, (E)-3-(4-((2-(2-isopropylphenyl)-6-(propionyloxy)benzo[b]thiophen-3-yl)oxy)phenyl)acrylic acid] | 5.1 | 11 |  |  |  |
| CCOC(=O)/C=C/c1ccc(Oc2c(-c3ccccc3C(C)C)sc3cc(O)ccc23)cc1 [Example 137, (E)-ethyl 3-(4-((6-hydroxy-2-(2-isopropylphenyl)benzo [b]thiophen-3-yl)oxy)phenyl)acrylate] | 9 | 15 |  |  |  |
| CC(C)c1ccccc1-c1sc2cc(O)ccc2c1Oc1ccc(/C=C/C(=O)OCCN2CCOCC2)cc1 [Example 138, (E)-2-morpholinoethyl 3-(4-((6-hydroxy-2-(2-isopropylphenyl)benzo [b]thiophen-3-yl)oxy)phenyl)acrylate] | 5.8 | 24 |  |  |  |
| O=C(O)c1ccc(Oc2c(-c3ccc(O)cc3)sc3cc(O)ccc23)cc1 [reference compound] |  |  |  | 10000 | 57 |
| O=C(O)CCCc1ccc(Oc2c(-c3ccc(O)cc3)sc3cc(O)ccc23)cc1 [reference compound] |  |  |  | 10000 | 55 |
